Test results: patent EP0119446A2, “Growth promoting aminophenylethyl amine derivatives” (BAYER AG, priority 1983, dated 1984)

Test system: Ratten, weiblich
Test: Feeding trial in rats (feed intake, weight gain, feed conversion)
Format: in vivo, Ratten (SPF Wistar)
Conditions: n = 6
Excerpt: (§1) Die Tiere wurden 2 Tage an die neuen Haltungsbedingungen adaptiert, wobei generell das Versuchsfutter ohne Wirkstoffzusatz verabreicht wurde. Am dritten Versuchstag wurden die Tiere randomisiert und anschließend die Versuchsgruppen so gebildet, daß sowohl die Mittelwerte als auch die Streuungen in den Körpergewichten zwischen den Gruppen gleich waren. Nach einer 5-tägigen Vorperiode wurde eine 8-tägige Hauptperiode durchgeführt, in denen Futteraufnahme, Zuwachs und Futterverwertung bestimmt wurden.
Es wurden folgende Behandlungen geprüft: • b 1) Negativkontrolle (n = 12) • b 2) 25 ppm (Wirkstoff Beispiel 12) (n = 6)
as §1, with “7-tägige” for “8-tägige”
Es wurden folgende Behandlungen geprüft: • b 1) Negativkontrolle (n = 12) • b 2) 0,2 ppm (Wirkstoff Beispiel 12) (n = 6) • b 3) 10 ppm (Wirkstoff Beispiel 12) (n = 6)
Es wurden folgende Behandlungen geprüft: • b 1) Negativkontrolle (n = 12) • b 2) 25 ppm (Wirkstoff Beispiel 2) (n = 6)
as §1, with “7-tägigen” for “5-tägigen”, “7-tägige” for “8-tägige”
Es wurden folgende Behandlungen geprüft: • b 1) Negativkontrolle (n = 24) • b 2) 25 ppm (Wirkstoff Beispiel 2) (n = 6)
Es wurden folgende Behandlungen geprüft: • b 1) Negativkontrolle (n = 12) • b 2) 0,2 ppm (Wirkstoff Beispiel 1) (n = 6) • b 3) 10 ppm (Wirkstoff Beispiel 1) (n = 6)

[1] = 0,2 ppm in feed, whole test period 12 Tage (5-day pre-period + 7-day main period), negative control 200
[2] = 0,2 ppm in feed, whole test period 12 Tage, negative control 4,88
[3] = 0,2 ppm in feed, whole test period 12 Tage, negative control 41,0
[4] = 10 ppm in feed, whole test period 12 Tage (5-day pre-period + 7-day main period), negative control 200
[5] = 10 ppm in feed, whole test period 12 Tage, negative control 4,88
[6] = 10 ppm in feed, whole test period 12 Tage, negative control 41,0
[7] = 25 ppm in feed, whole test period 13 Tage (5-day pre-period + 8-day main period), negative control 174
[8] = 25 ppm in feed, whole test period 13 Tage, negative control 5,06
[9] = 25 ppm in feed, whole test period 13 Tage, negative control 35,4

Row | SMILES | Futter-aufnahme [1] [g] | Futter-verwer-tung [2] | Zuwachs [3] | Futter-aufnahme [4] [g] | Futter-verwer-tung [5] | Zuwachs [6] | Futter-aufnahme [7] [g] | Futter-verwer-tung [8] | Zuwachs [9] | Futter-aufnahme (25 ppm in feed, whole test period 14 Tage (7-day pre-period + 7-day main period), negative control 225) [g] | Futter-verwer-tung (25 ppm in feed, whole test period 14 Tage, negative control 5,30) | Zuwachs (25 ppm in feed, whole test period 14 Tage, negative control 40,6)
1 | Cc1cc(NCC(O)c2cc(Cl)c(N)c(Cl)c2)ccc1Oc1ccc(SC(F)(F)F)cc1 (stereo not drawn) [Bsp. 1] | 204 | 4,25 g/g | 47,9 g | 206 | 4,46 g/g | 46,2 g | 184 | 4,23 g/g | 43,9 g | – | – | –
2 | Cc1cc(NCC(O)c2cc(Cl)c(N)c(Cl)c2)ccc1Oc1ccc(S(=O)(=O)C(F)(F)F)cc1 (stereo not drawn) [Bsp. 2] | – | – | – | – | – | – | 180 | 4,85 g/g | 37,5 g | 233 | 4,88 g/g | 47,8 g
3 | CC(C)C(C)[Si](C)(C)OC(CN(C(C)(C)C)[Si](C)(C)C(C)C(C)C)c1cc(Cl)c(N)c(Cl)c1 (stereo not drawn) [Bsp. 12] | 217 | 4,13 g/g | 52,5 g | 204 | 4,03 g/g | 50,7 g | 193 | 3,77 g/g | 51,9 g | – | – | –
